Results on 18 compounds are retold here after ChEMBL document CHEMBL1201862, “PubChem BioAssay data set” (2004).

The source made the active and inactive calls. Where only a bound is given, the exact number is not on record here.

The nature of assay [1]: inhibitors of intracellular T. cruzi replication, confirmation, NIH3T3 host cells, beta-gal luminescence (AID 2044).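 Note: intracellular parasites grown in NIH/3T3 mouse fibroblasts as host cells; luminescent beta-galactosidase reporter signal from transgenic T. cruzi replicating inside host cells; inhibitors lower the luminescence signal.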 It is filed as functional, cell-based.
Assay [2] is described as follows: cytotoxicity toward NIH3T3 fibroblasts, dose response, counter-screen, cell-based, ATP luminescence, mouse fibroblasts (AID 2010).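 Note: cells exposed to compound for about 90 hours before reading.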 It counts as functional.
Assay [3] can be described thus: M. tuberculosis H37Rv growth inhibitors, H37Rv strain (AID 1626). It is filed as functional.
A further assay addresses T1, CAAX prenyl protease 2 (Saccharomyces cerevisiae S288c, UniProt Q03530).
T1 sequence (Q03530 whole entry): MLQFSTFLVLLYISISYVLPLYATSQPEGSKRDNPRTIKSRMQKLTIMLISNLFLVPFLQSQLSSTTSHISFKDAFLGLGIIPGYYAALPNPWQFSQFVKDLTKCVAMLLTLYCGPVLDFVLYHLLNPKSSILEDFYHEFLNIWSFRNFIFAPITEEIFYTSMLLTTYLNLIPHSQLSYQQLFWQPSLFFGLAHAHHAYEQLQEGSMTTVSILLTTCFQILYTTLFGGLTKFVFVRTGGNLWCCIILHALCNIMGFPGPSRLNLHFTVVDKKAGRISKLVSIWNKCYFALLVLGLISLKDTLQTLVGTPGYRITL
It is filed as biochemical.

In the next assay the target is Trypsin (Sus scrofa, UniProt P00761). Put plainly: porcine trypsin inhibitors, dose response, selectivity assay for Rce1 protease inhibitor project, biochemical, quenched peptide fluorescence, cherry-pick (AID 488789).
Sequence of Trypsin (P00761 whole entry): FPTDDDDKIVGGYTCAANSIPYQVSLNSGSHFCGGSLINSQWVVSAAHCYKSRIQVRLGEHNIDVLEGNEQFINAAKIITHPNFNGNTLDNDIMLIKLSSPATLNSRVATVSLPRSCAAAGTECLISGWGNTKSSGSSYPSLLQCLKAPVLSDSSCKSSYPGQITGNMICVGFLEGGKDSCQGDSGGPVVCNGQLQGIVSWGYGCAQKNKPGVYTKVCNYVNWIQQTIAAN
A further assay addresses T2, Estrogen receptor (Homo sapiens, UniProt P03372).
T2 sequence (P03372 whole entry): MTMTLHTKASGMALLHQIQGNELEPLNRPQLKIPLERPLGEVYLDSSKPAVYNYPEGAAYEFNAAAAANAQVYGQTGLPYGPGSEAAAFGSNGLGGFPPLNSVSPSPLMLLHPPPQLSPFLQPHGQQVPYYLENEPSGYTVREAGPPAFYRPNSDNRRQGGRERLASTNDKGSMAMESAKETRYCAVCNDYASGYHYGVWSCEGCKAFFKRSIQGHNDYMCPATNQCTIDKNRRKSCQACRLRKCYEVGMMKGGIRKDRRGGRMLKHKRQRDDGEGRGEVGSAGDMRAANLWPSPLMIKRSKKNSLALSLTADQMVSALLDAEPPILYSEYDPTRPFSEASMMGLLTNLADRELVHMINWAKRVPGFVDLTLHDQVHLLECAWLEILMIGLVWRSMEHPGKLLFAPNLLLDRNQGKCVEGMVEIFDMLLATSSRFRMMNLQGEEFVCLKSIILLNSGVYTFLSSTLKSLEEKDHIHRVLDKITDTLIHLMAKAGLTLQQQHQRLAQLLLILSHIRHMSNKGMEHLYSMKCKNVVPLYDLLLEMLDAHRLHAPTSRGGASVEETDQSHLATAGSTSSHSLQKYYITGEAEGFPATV

Assay [4] deals with T3, Carboxy-terminal domain RNA polymerase II polypeptide A small phosphatase 1 (Homo sapiens, UniProt Q9GZU7).
T3 sequence (Q9GZU7 whole entry): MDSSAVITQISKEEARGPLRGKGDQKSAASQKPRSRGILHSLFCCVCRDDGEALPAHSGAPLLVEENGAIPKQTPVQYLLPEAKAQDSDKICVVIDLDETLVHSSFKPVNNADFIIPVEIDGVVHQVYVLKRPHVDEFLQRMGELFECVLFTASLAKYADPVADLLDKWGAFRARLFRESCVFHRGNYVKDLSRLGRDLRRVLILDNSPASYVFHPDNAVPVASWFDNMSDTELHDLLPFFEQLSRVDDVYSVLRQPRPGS
Put plainly: inhibitors of CTDSP1, concentration-response testing, biochemical assay, absorbance-based, actives from ultra-high-throughput screening (AID 540297). It is filed as functional.

Another assay deals with Prothrombin (Homo sapiens, UniProt P00734). Put plainly: Thrombin 1536 HTS Dose Response Confirmation. [Related pubchem assays: 1046 (Thrombin 1536 HTS; hits were confirmed in this assay)]. It is filed as functional.
Assay [5] deals with T4, Calpain-2 catalytic subunit (Sus scrofa, UniProt P43367).
T4 sequence (P43367 whole entry): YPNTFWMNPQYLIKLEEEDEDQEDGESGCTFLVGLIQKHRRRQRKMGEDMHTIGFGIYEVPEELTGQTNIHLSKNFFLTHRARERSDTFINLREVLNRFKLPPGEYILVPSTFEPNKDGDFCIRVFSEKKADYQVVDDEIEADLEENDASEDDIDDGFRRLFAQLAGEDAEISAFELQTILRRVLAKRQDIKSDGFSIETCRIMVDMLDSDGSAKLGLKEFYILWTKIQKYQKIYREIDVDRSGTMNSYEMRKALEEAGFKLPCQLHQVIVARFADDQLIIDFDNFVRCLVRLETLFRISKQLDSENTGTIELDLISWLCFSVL
Briefly: pig calpain II inhibitor potency, dose response, biochemical, fluorogenic peptide substrate (AID 1420). It is filed as functional.

The target of a further assay is T5, Caspase-6 (Homo sapiens, UniProt P55212).
T5 sequence (P55212 whole entry): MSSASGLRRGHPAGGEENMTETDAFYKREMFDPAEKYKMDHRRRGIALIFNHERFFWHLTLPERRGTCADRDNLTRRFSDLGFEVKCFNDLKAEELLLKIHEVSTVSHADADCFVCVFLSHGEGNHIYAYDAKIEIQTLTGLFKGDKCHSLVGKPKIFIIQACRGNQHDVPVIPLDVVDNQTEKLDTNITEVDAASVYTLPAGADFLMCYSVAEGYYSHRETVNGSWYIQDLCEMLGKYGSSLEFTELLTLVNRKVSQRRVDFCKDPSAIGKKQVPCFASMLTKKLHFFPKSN
Put plainly: human caspase-6 inhibitors, dose response, biochemical, VEID-R110 fluorescence, cherry-pick (AID 720632).

A further assay addresses Genome polyprotein (dengue virus type 2, UniProt P29990). Briefly: Dengue-2 NS5 methyltransferase inhibitors, primary screen, biochemical, confirmation dose response (AID 588689). It is filed as functional.
In the next assay the target is Large T antigen (Simian virus 40, UniProt P03070). It counts as functional, Betapolyomavirus macacae.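 Note: Confirmatory-stage PubChem screen for compounds that inhibit SV40 T antigen.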
Sequence of Large T antigen (P03070 whole entry): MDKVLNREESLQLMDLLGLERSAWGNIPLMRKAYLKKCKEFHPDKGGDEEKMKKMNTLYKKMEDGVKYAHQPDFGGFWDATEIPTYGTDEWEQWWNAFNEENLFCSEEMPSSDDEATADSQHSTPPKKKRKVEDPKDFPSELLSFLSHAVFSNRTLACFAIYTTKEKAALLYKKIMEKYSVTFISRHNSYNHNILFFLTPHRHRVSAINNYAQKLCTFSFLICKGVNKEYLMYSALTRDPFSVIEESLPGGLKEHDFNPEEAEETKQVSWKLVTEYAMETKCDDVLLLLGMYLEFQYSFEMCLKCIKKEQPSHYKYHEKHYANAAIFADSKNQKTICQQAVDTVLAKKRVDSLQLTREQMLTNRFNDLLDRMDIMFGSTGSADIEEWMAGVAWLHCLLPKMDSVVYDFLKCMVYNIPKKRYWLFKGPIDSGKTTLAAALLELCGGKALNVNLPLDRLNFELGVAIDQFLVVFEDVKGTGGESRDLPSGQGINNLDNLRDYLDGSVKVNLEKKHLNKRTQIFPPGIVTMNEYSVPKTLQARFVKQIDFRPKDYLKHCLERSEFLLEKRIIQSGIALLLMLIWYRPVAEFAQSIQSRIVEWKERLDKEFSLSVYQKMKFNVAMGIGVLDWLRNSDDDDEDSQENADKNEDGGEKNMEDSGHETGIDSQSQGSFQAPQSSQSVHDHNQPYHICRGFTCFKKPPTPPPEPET
In the next assay the target is T6, Protein RecA (Mycobacterium tuberculosis, UniProt P9WHJ3).
T6 sequence (P9WHJ3 whole entry): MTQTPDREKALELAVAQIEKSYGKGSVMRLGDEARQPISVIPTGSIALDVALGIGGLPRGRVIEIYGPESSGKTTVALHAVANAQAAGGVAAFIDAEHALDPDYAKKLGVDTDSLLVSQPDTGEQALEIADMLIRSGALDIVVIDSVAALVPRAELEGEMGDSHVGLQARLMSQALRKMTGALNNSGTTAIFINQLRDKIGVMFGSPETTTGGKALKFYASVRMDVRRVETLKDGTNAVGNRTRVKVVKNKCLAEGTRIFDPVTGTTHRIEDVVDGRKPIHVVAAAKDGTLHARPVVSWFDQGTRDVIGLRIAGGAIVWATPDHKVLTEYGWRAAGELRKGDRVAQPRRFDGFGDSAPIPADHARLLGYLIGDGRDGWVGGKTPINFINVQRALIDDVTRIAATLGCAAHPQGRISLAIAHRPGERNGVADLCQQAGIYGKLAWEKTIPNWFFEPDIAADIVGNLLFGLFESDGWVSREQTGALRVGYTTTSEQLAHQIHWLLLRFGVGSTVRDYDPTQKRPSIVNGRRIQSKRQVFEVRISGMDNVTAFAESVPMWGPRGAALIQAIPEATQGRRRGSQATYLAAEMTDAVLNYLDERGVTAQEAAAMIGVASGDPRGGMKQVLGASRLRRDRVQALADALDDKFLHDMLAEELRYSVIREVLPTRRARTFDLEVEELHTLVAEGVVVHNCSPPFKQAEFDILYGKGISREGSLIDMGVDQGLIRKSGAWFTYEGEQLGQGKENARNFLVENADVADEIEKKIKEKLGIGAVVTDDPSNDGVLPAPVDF
Put plainly: Fluorescence Cell-Free Homogeneous Dose Retest to Identify Inhibitors of RecA-Intein Splicing Activity. [Related pubchem assays (depositor defined):AID2097, AID2223, AID489010, AID492950]. It is filed as functional.

The target in assay [6] is T7, Replicative DNA helicase DnaB (Mycobacterium tuberculosis, UniProt P9WMR3).
T7 sequence (P9WMR3 whole entry): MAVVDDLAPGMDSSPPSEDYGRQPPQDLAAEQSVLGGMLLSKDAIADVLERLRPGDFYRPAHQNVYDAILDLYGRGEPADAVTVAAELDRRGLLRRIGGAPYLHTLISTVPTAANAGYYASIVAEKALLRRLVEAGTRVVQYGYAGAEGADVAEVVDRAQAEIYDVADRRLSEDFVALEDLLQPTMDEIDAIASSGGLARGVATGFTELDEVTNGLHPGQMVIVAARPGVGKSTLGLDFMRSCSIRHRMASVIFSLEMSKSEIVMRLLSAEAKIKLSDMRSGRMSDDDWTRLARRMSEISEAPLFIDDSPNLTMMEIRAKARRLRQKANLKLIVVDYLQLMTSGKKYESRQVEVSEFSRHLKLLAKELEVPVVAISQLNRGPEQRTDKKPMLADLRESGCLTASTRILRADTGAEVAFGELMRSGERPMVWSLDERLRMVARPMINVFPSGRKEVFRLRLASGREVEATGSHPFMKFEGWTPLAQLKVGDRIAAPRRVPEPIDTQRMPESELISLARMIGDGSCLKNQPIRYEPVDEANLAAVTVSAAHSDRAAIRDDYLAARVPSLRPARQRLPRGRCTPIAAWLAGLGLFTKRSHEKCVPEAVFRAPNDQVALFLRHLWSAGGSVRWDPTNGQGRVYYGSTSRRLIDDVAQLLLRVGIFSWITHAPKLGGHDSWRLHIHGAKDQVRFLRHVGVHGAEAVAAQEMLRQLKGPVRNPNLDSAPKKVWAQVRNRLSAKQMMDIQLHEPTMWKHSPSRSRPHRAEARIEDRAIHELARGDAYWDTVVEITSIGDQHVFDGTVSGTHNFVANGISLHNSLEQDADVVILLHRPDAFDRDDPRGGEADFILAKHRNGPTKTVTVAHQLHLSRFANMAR
Briefly: DnaB intein splicing inhibitors, dose response, biochemical, cell-free fluorescence (AID 449749). It is filed as functional.

Sequence of Genome polyprotein (P29990 2492-3391 limits assumed): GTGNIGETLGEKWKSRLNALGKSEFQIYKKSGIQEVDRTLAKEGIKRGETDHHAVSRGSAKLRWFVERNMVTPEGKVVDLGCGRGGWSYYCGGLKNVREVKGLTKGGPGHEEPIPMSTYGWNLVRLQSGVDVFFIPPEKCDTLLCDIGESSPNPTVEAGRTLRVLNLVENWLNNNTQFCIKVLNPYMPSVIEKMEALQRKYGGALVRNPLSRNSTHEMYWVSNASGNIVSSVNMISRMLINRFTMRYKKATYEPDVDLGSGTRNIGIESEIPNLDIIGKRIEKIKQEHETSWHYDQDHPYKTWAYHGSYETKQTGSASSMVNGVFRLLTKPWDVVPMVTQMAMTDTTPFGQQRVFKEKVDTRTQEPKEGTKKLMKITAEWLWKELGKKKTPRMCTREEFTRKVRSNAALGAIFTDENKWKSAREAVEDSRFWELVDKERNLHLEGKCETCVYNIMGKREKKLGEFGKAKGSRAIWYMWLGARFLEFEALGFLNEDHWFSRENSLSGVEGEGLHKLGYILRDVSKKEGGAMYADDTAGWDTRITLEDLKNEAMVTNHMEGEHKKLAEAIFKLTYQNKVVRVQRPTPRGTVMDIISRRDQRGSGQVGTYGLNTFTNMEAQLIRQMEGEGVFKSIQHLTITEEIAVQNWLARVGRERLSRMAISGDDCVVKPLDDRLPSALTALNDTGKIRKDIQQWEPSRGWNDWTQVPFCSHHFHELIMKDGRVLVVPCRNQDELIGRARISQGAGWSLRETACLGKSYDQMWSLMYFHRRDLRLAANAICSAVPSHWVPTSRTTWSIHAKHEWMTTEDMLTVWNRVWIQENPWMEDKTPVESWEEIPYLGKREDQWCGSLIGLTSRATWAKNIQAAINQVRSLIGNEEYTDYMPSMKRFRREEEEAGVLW

As for `CCOC(=O)c1sc2c(c1C)c(=O)n(Cc1ccccc1)c(=O)n2CCN(C)C`, the figures for the EC50 (in “cells”; in assay [1]; in assay [2]) were 62 nM (active), < 100 nM (active) and > 60 µM (not active), respectively.

For `Cc1cc(O)nc(SCC(=O)C23CC4CC(CC(C4)C2)C3)c1C#N`, the IC50 in assay [3] is > 100 µM (active).

Take `Cc1c(Cc2ccccc2)c(=O)oc2c(C)c(OCC(=O)N3CCC(C(=O)O)CC3)ccc12`: the values for the concentration at half-maximal activity (AC50) on CAAX prenyl protease 2 and at Trypsin were 10.7 µM (active) and 9.51 µM (active), respectively.

For `O=C(Nc1ccc2nn(-c3ccccc3)nc2c1)c1ccc(Br)o1`, the results for the IC50 (against Estrogen receptor; in assay [4]) were > 50 µM (not active) and 3.62 µM (active), respectively.

For `Cc1c(Cl)cnc(NC(=O)COC(=O)CCC(=O)c2cccs2)c1Cl`, on Prothrombin, the IC50 was 2.77 µM (active).

In the case of `O=C(CN1C(=O)C2C3CCC(C3)C2C1=O)Oc1ccc2ccccc2c1` (stereo unspecified), in assay [3], the IC50 is > 100 µM (active).

Regarding `COc1ccc(-c2nc(CC(=O)O)cs2)cc1OC`, the AC50 on CAAX prenyl protease 2 was 29.7 µM (active); at Trypsin, 6.53 µM (active).

With `Cc1nc(-c2cnn(-c3ccccc3)c2)c2cc(C)oc2n1`, the IC50 on Prothrombin is > 50 µM (not active).

Turning to `CCOc1ccc(NC2C=CS(=O)(=O)C2)cc1` (stereo unspecified), the 50% inhibitory concentration (IC50) in assay [3] is > 100 µM (active).

As for `C=C(C)COc1ccc(-c2n[nH]cc2Oc2ccccc2OCC)c(O)c1`, the IC50 in assay [5] is given as 11.7 µM (not active).

As for `COc1ccc2sc(N(CCCN(C)C)C(=O)c3ccc(S(=O)(=O)N(C)C4CCCCC4)cc3)nc2c1`, the EC50 was 393 nM (active) in “cells”, < 100 nM (active) in [1] and > 60 µM (not active) in [2].

Take `COC(=O)Cc1ccc(NC(=O)c2ccc(Br)o2)cc1`: the IC50 in assay [3] was > 100 µM (active).

For `CCc1ccc(S(=O)(=O)NCc2cn3c(C)csc3n2)s1`, the IC50 in assay [5] was 6.07 µM (not active).

Consider `Cc1ccnc(NC(=O)c2ccc([N+](=O)[O-])o2)c1`, for which the IC50 against Prothrombin is on record as > 50 µM (not active).

As for `O=C(O)c1cc(Nc2cc(Cl)c3nonc3c2[N+](=O)[O-])ccc1O`, the AC50 on Caspase-6 was 14.6 µM (active); in assay [6], 1.17 µM (active). Further, the values for the IC50 at Genome polyprotein and on Large T antigen were 8.55 µM (active) and 40.4 µM (active), respectively. Further, at Protein RecA, the EC50 was 1.33 µM (active).

Take `CCN(CC)c1ccc(CN(C)CCc2ccc(OC)c(OC)c2)cc1`: the concentration giving a half-maximal response (EC50) is < 4 nM (active) in “cells”, < 100 nM (active) in assay [1] and > 60 µM (not active) in assay [2].

In the case of `CC(C)(C)C1CCc2c(sc(NC(=O)CSc3nnc(-c4ccccc4)o3)c2C#N)C1` (stereo unspecified), the IC50 in assay [3] was > 100 µM (active).

As for `CC(C)(C)c1csc(N/N=C/c2cccnc2)n1`, in assay [5], the IC50 was 18.6 µM (not active).
